Experimental data: ChEMBL document CHEMBL5608235, “Tricyclic Benzo[1,3]oxazinyloxazolidinones as Potent Antibacterial Agents against Drug-Resistant Pathogens” (J Med Chem, 2024)
Converted amounts (≈) assume the structure as drawn.

What was measured:
[1] = system: Staphylococcus aureus; assay: Antibacterial activity against Staphylococcus aureus ATCC25923 assessed as inhibition of bacterial growth incubated for 18 hrs by microdilution broth assay; assay type: functional
[2] = Cytotoxicity against African green monkey Vero cells incubated for 48 hrs by MTT assay; assay type: toxicity, cell-based, Chlorocebus sabaeus
[3] = system: Staphylococcus epidermidis; assay: Antibacterial activity against Staphylococcus epidermidis ATCC12228 assessed as inhibition of bacterial growth incubated for 18 hrs by microdilution broth assay; assay type: functional
[4] = system: Enterococcus faecalis; assay: Antibacterial activity against Enterococcus faecalis ATCC29212 assessed as inhibition of bacterial growth incubated for 18 hrs by microdilution broth assay; assay type: functional
[5] = system: Bacillus subtilis; assay: Antibacterial activity against Bacillus subtilis ATCC6633 assessed as inhibition of bacterial growth incubated for 18 hrs by microdilution broth assay; assay type: functional
[6] = system: Mycobacterium tuberculosis; assay: Antibacterial activity against Mycobacterium tuberculosis H37Rv assessed as inhibition of bacterial growth incubated for 7 days by alamar blue assay; assay type: functional; conditions: 168 h, time 7 day
[7] = system: Staphylococcus aureus; assay: Antibacterial activity against methicillin resistant Staphylococcus aureus clinical isolate 20-1 assessed as inhibition of bacterial growth incubated for 7 days by alamar blue assay; assay type: functional; conditions: clinical isolate 20-1, 168 h, time 7 day
[8] = Metabolic stability in human liver microsomes assessed as substrate remaining at 10 uM incubated for 60 mins in presence of NADPH by LC-MS/MS analysis; assay type: ADME, Microsome; conditions: read-out: Stability
[9] = system: Staphylococcus aureus; assay: Antibacterial activity against vancomycin intermediate Staphylococcus aureus ATCC700699 assessed as inhibition of bacterial growth incubated for 7 days by alamar blue assay; assay type: functional; conditions: ATCC700699, 168 h, time 7 day
[10] = system: Staphylococcus aureus; assay: Antibacterial activity against Linezolid resistant Staphylococcus aureus clinical isolate 20-2 assessed as inhibition of bacterial growth incubated for 7 days by alamar blue assay; assay type: functional; conditions: clinical isolate 20-2, 168 h, time 7 day
[11] = system: Enterococcus faecalis; assay: Antibacterial activity against Linezolid resistant Enterococcus faecalis clinical isolate 20-2 assessed as inhibition of bacterial growth incubated for 7 days by alamar blue assay; assay type: functional; conditions: clinical isolate 20-2, 168 h, time 7 day
[12] = system: Staphylococcus epidermidis; assay: Antibacterial activity against methicillin resistant Staphylococcus epidermidis clinical isolate 20-2 assessed as inhibition of bacterial growth incubated for 7 days by alamar blue assay; assay type: functional; conditions: clinical isolate 20-2, 168 h, time 7 day
[13] = system: Enterococcus; assay: Antibacterial activity against vancomycin resistant Enterococcus clinical isolate 20-1 assessed as inhibition of bacterial growth incubated for 7 days by alamar blue assay; assay type: functional; conditions: clinical isolate 20-1, 168 h, time 7 day
[14] = system: Staphylococcus epidermidis; assay: Antibacterial activity against methicillin resistant Staphylococcus epidermidis clinical isolate 20-1 assessed as inhibition of bacterial growth incubated for 7 days by alamar blue assay; assay type: functional; conditions: clinical isolate 20-1, 168 h, time 7 day
[15] = Metabolic stability in human liver microsomes assessed as compound remaining at 10 uM incubated for 60 mins in absence of NADPH by LC-MS/MS analysis; assay type: ADME, Microsome; conditions: read-out: Stability
[16] = system: Enterococcus faecalis; assay: Antibacterial activity against Linezolid resistant Enterococcus faecalis clinical isolate 20-1 assessed as inhibition of bacterial growth incubated for 7 days by alamar blue assay; assay type: functional; conditions: clinical isolate 20-1, 168 h, time 7 day
[17] = Metabolic stability in ICR mouse liver microsomes assessed as substrate remaining at 10 uM incubated for 60 mins in presence of NADPH by LC-MS/MS analysis; assay type: ADME, Microsome; conditions: read-out: Stability
[18] = system: Staphylococcus aureus; assay: Antibacterial activity against methicillin resistant Staphylococcus aureus clinical isolate 20-2 assessed as inhibition of bacterial growth incubated for 7 days by alamar blue assay; assay type: functional; conditions: clinical isolate 20-2, 168 h, time 7 day
[19] = system: Staphylococcus aureus; assay: Antibacterial activity against Linezolid resistant Staphylococcus aureus clinical isolate 20-1 assessed as inhibition of bacterial growth incubated for 7 days by alamar blue assay; assay type: functional; conditions: clinical isolate 20-1, 168 h, time 7 day
[20] = Metabolic stability in ICR mouse liver microsomes assessed as compound remaining at 10 uM incubated for 60 mins in absence of NADPH by LC-MS/MS analysis; assay type: ADME, Microsome; conditions: read-out: Stability

## COc1cc(-c2cc3c(cc2F)O[C@H]2[C@H](CNC(C)=O)OC(=O)N2C3)ccn1
[1]
  MIC: 4 µg/mL (≈ 10.3 µM)
[2]
  IC50 at 48 h: 36 µg/mL (≈ 92.9 µM)
[3]
  MIC: 2 µg/mL (≈ 5.16 µM)
[4]
  MIC: 1 µg/mL (≈ 2.58 µM)
[5]
  MIC: 0.5 µg/mL (≈ 1.29 µM)
[6]
  MIC: 6.51 µg/mL (≈ 16.8 µM)

## COC(=O)NC[C@@H]1OC(=O)N2Cc3cc(-c4ccc(C#N)nc4)c(F)cc3O[C@@H]12
[7]
  MIC: 0.5 µg/mL (≈ 1.26 µM)
[8]
  remaining at 1 h, 10 µM: 103%
[9]
  MIC: 1 µg/mL (≈ 2.51 µM)
[10]
  MIC: 16 µg/mL (≈ 40.2 µM)
[1]
  MIC: 8 µg/mL (≈ 20.1 µM)
[11]
  MIC: 4 µg/mL (≈ 10 µM)
[12]
  MIC: 0.25 µg/mL (≈ 0.628 µM)
[13]
  MIC: 1 µg/mL (≈ 2.51 µM)
[2]
  IC50 at 48 h: 33 µg/mL (≈ 82.8 µM)
[14]
  MIC: 0.25 µg/mL (≈ 0.628 µM)
[15]
  remaining at 1 h, 10 µM: 114%
[3]
  MIC: 0.25 µg/mL (≈ 0.628 µM)
[16]
  MIC: 4 µg/mL (≈ 10 µM)
[17]
  remaining at 1 h, 10 µM: 116%
[18]
  MIC: 0.5 µg/mL (≈ 1.26 µM)
[4]
  MIC: 0.5 µg/mL (≈ 1.26 µM)
[19]
  MIC: 16 µg/mL (≈ 40.2 µM)
[20]
  remaining at 1 h, 10 µM: 113%
[5]
  MIC: 0.125 µg/mL (≈ 0.314 µM)
[6]
  MIC: 0.97 µg/mL (≈ 2.44 µM)

## CC(=O)NC[C@@H]1OC(=O)N2Cc3cc(-c4ccc(C(F)(F)F)nc4)c(F)cc3O[C@@H]12
[1]
  MIC: 32 µg/mL (≈ 75.2 µM)
[3]
  MIC: 0.5 µg/mL (≈ 1.18 µM)
[4]
  MIC: 1 µg/mL (≈ 2.35 µM)
[5]
  MIC: 1 µg/mL (≈ 2.35 µM)
[6]
  MIC: 6.7 µg/mL (≈ 15.8 µM)

## CC(=O)NC[C@@H]1OC(=O)N2Cc3cc(-c4ccnc(C#N)c4)c(F)cc3O[C@@H]12
[1]
  MIC: 4 µg/mL (≈ 10.5 µM)
[2]
  IC50 at 48 h: > 64 µg/mL
[3]
  MIC: 1 µg/mL (≈ 2.62 µM)
[4]
  MIC: 1 µg/mL (≈ 2.62 µM)
[5]
  MIC: 0.25 µg/mL (≈ 0.654 µM)
[6]
  MIC: 1.85 µg/mL (≈ 4.84 µM)

## CC(=O)c1ccc(-c2c(F)cc3c(c2F)CN2C(=O)O[C@@H](CN)[C@@H]2O3)cc1
[1]
  MIC: 64 µg/mL (≈ 171 µM)
[2]
  IC50 at 48 h: 34 µg/mL (≈ 90.8 µM)
[3]
  MIC: 64 µg/mL (≈ 171 µM)
[4]
  MIC: > 64 µg/mL
[5]
  MIC: > 64 µg/mL
[6]
  MIC: 0.43 µg/mL (≈ 1.15 µM)

## COC(=O)NC[C@@H]1OC(=O)N2Cc3cc(-c4ccc(C(C)=O)cc4)c(F)cc3O[C@@H]12
[1]
  MIC: > 64 µg/mL
[3]
  MIC: 0.5 µg/mL (≈ 1.21 µM)
[4]
  MIC: 0.5 µg/mL (≈ 1.21 µM)
[5]
  MIC: 0.125 µg/mL (≈ 0.302 µM)
[6]
  MIC: 1.74 µg/mL (≈ 4.2 µM)

## COc1ccc(-c2c(F)cc3c(c2F)CN2C(=O)O[C@@H](CNC(C)=O)[C@@H]2O3)cn1
[1]
  MIC: 8 µg/mL (≈ 19.7 µM)
[3]
  MIC: 0.5 µg/mL (≈ 1.23 µM)
[4]
  MIC: 0.5 µg/mL (≈ 1.23 µM)
[5]
  MIC: 0.032 µg/mL (≈ 0.0789 µM)
[6]
  MIC: 6.75 µg/mL (≈ 16.7 µM)

## Cc1ncc2n1-c1ccc(Cl)cc1C(c1ccccc1F)=NC2 [MIDAZOLAM]
[8]
  remaining at 1 h, 10 µM: 62%
[17]
  remaining at 1 h, 10 µM: 48.9%

## CC(=O)NC[C@H]1OC(=O)N2Cc3c(cc(F)c(-c4ccc(-c5nnn(C)n5)nc4)c3F)O[C@H]12
[1]
  MIC: > 64 µg/mL
[3]
  MIC: > 64 µg/mL
[4]
  MIC: > 64 µg/mL
[5]
  MIC: > 64 µg/mL
[6]
  MIC: > 32 µg/mL

## COc1ccc(-c2c(F)cc3c(c2F)CN2C(=O)O[C@@H](CN)[C@@H]2O3)cn1
[1]
  MIC: 64 µg/mL (≈ 176 µM)
[3]
  MIC: 64 µg/mL (≈ 176 µM)
[4]
  MIC: > 64 µg/mL
[5]
  MIC: 64 µg/mL (≈ 176 µM)
[6]
  MIC: 1.82 µg/mL (≈ 5.01 µM)

## CC(=O)NC[C@@H]1OC(=O)N2Cc3cc(-c4ccn5ncnc5c4)c(F)cc3O[C@@H]12
[1]
  MIC: 8 µg/mL (≈ 20.1 µM)
[2]
  IC50 at 48 h: > 64 µg/mL
[3]
  MIC: 2 µg/mL (≈ 5.03 µM)
[4]
  MIC: 0.5 µg/mL (≈ 1.26 µM)
[5]
  MIC: 0.5 µg/mL (≈ 1.26 µM)
[6]
  MIC: 1.43 µg/mL (≈ 3.6 µM)

## CC(=O)NC[C@@H]1OC(=O)N2Cc3cc(-c4ccc5c(c4)NC(=O)CO5)c(F)cc3O[C@@H]12
[1]
  MIC: 32 µg/mL (≈ 74.9 µM)
[2]
  IC50 at 48 h: 40 µg/mL (≈ 93.6 µM)
[3]
  MIC: 2 µg/mL (≈ 4.68 µM)
[4]
  MIC: 1 µg/mL (≈ 2.34 µM)
[5]
  MIC: 16 µg/mL (≈ 37.4 µM)
[6]
  MIC: 0.9 µg/mL (≈ 2.11 µM)

## CC(=O)NC[C@H]1OC(=O)N2Cc3cc(-c4ccc(C#N)nc4)c(F)cc3O[C@@H]12
[1]
  MIC: 0.125 µg/mL (≈ 0.327 µM)
[2]
  IC50 at 48 h: > 64 µg/mL
[4]
  MIC: 0.5 µg/mL (≈ 1.31 µM)
[5]
  MIC: 0.125 µg/mL (≈ 0.327 µM)
[6]
  MIC: 0.48 µg/mL (≈ 1.26 µM)
